Experiments:
[1] = molecular target: human Adenosine A1 receptor (Homo sapiens (Human), UniProt P30542); assay: Adenosine receptor TR-FRET binding assay (A1); conditions: inhibition of binding of 100 nM CA200645; CHO cell membranes; Ki from IC50 by Cheng and Prusoff
Method: (§1) All FRET binding experiments were conducted at room temperature in white 384-well plates, in assay binding buffer containing 1× LabMed (Cisbio, France), 100 μg/mL saponin, 1% DMSO and 0.02% pluronic acid. Binding of the fluorescently labelled Adenosine receptor antagonist XAC (CA200645, FRET acceptor) to terbium-labelled A1, A2a, A2b and A3 adenosine receptors (FRET donors) was detected by time-resolved FRET due to the close proximity of the donor and acceptor in a binding event. To investigate the ability of unlabelled test compounds to bind to Adenosine A1, A2a, A2b and A3 receptors, dose response curves were constructed that determined the ability of a range of concentrations to inhibit the binding of 30 nM CA200645 to the A2b receptor and 100 nM CA200645 to the A1, A2a, and A3 receptor.
(§2) Serial dilution (1:3 dilutions) of test compounds in neat DMSO and transfer of a 400 nL sample of test compound into the assay plate was carried out using the Mosquito (TTP Labtech, UK). The compound samples were incubated for 2 hours at room temperature with a fixed concentration of CA200645 defined for each receptor (see above) and CHO cell membranes containing the human Adenosine A1 (0.5 μg/well), A2a (0.3 μg/well), A2b (1 μg/well) or A3 (1 μg/well) receptor in 40 μL of assay buffer. Total and non-specific binding of CA200645 was determined in the absence and presence of 10 μM XAC, respectively. Following 2 hours incubation, the level of CA200645 binding was detected on a Pherastar FSX (BMG Labtech, Germany) using standard TR-FRET settings. The terbium donor was excited with three laser flashes at a wavelength of 337 nm, and donor and acceptor emission was detected at 620 nm and 665 nm wavelengths, respectively. FRET ratios were obtained by multiplying the acceptor/donor ratio value by 10,000. Specific binding was determined by subtracting the non-specific binding FRET ratio from the total binding FRET ratio. Compound IC50 curves were analysed using GraphPad Prism 7.0 (GraphPad, USA) and Ki affinity values were determined from the obtained IC50 values using the method of Cheng and Prusoff.

[2] = molecular target: human Adenosine A2a receptor (Homo sapiens (Human), UniProt P29274); assay: Adenosine receptor TR-FRET binding assay (A2a); conditions: inhibition of binding of 100 nM CA200645; CHO cell membranes; Ki from IC50 by Cheng and Prusoff
Chain of human Adenosine A2a receptor (P29274 whole entry): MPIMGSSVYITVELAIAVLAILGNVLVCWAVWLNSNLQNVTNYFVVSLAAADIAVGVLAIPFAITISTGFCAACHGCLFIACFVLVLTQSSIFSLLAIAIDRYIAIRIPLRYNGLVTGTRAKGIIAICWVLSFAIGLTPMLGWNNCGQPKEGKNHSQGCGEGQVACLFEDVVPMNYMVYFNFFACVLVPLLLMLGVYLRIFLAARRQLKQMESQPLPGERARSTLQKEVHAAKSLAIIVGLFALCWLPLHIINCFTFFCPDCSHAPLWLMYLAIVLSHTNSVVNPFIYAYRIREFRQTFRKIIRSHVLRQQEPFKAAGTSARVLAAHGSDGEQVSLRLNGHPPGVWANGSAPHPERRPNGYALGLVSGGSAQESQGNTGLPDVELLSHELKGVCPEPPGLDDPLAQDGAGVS
Method: as §1, §2

[3] = molecular target: human Adenosine A2b receptor (Homo sapiens (Human), UniProt P29275); assay: Adenosine receptor TR-FRET binding assay (A2b); conditions: inhibition of binding of 30 nM CA200645; CHO cell membranes; Ki from IC50 by Cheng and Prusoff
Chain of human Adenosine A2b receptor (P29275 whole entry): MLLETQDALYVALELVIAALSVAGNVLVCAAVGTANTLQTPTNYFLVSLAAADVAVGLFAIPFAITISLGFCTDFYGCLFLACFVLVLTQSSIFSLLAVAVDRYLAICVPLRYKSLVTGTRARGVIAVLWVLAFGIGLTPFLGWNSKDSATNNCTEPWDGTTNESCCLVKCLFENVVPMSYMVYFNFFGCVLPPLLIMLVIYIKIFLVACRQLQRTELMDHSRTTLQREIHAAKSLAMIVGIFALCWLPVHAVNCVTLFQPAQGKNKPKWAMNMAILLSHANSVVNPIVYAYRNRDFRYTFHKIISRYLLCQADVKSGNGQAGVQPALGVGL
Method: as §1, §2

[4] = molecular target: human Adenosine A3 receptor (Homo sapiens (Human), UniProt P0DMS8); assay: Adenosine receptor TR-FRET binding assay (A3); conditions: inhibition of binding of 100 nM CA200645; CHO cell membranes; Ki from IC50 by Cheng and Prusoff
Chain of human Adenosine A3 receptor (P0DMS8 whole entry): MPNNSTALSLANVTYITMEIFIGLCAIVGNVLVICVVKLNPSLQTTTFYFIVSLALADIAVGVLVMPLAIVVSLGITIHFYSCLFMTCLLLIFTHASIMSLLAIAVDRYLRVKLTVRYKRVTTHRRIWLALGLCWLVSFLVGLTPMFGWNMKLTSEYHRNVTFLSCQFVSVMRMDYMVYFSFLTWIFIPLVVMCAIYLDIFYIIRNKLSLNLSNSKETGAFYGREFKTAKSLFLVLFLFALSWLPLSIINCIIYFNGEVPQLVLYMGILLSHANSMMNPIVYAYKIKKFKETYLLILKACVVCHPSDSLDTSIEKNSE
Method: as §1, §2

[5] = system: CD8+ T cells in human whole blood; assay: Measurement of pCREB in CD8+ T cells in human whole blood; format: cell-based; conditions: T-cell, 3 μM NECA, rolipram, FACS
Method: Heparinised human whole blood was pre-incubated at 37° C. with serial dilutions of A2a antagonists for 20 min. and the phosphodiesterase inhibitor rolipram to amplify the pCREB response. The adenosine receptor agonist NECA is then added at a final concentration of 3 μM and following a 60 min incubation the blood is fixed and red blood cells lysed. White blood cells are isolated, permeabilized and stained with directly conjugated fluorescent antibodies to phospho-CREB (Alexa Fluor 488) and CD8 (Alexa Fluor 647) and the level of phospho-CREB in CD8+ T cells is measured by FACS using a BD Accuri C6 Flow Cytometer.

Chain of human Adenosine A1 receptor (P30542 whole entry): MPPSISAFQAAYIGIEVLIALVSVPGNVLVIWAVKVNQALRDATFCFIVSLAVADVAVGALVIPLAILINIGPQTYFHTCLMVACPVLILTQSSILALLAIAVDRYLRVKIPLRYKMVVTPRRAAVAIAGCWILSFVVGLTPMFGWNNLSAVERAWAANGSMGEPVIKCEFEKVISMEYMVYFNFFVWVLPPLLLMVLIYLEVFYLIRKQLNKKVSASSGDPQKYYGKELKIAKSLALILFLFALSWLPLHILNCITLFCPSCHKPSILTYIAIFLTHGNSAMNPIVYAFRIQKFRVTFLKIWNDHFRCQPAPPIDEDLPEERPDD

Structure (SMILES)	Ki [1] [nM]	Ki [2] [nM]	Ki [3] [nM]	Ki [4] [nM]	IC50 [5] [nM]
Cn1cnc2ccc(-c3sc(NC(=O)N4CC5(COC5)C4)nc3-c3cccc(C#N)c3)cc21 [Example 25, N-[4-(3-Cyanophenyl)-5-(3-methylbenzimidazol-5-yl)thiazol-2-yl]-2-oxa-6-azaspiro[3.3]heptane-6-carboxamide]	0.3	0.07	0.5	1730	
N#Cc1cccc(-c2nc(NC(=O)N3CC4(COC4)C3)sc2-c2c[nH]c3ncccc23)c1 [Example 17, N-[4-(3-Cyanophenyl)-5-(1H-pyrrolo[2,3-b]pyridin-3-yl)thiazol-2-yl]-2-oxa-6-azaspiro[3.3]heptane-6-carboxamide]	1	3.11	0.8	305	
Cc1cc(-c2sc(NC(=O)N3CC4(COC4)C3)nc2-c2cccc(C#N)c2)c2[nH]ncc2n1 [Example 23, N-[4-(3-Cyanophenyl)-5-(5-methyl-1H-pyrazolo[4,3-b]pyridin-7-yl)thiazol-2-yl]-2-oxa-6-azaspiro[3.3]heptane-6-carboxamide]	467	6.56	1.6	126	
N#Cc1cccc(-c2nc(NC(=O)N3CC4(COC4)C3)sc2-c2ccnc3[nH]ccc23)c1 [Example 2.4, N-[4-(3-Cyanophenyl)-5-(1H-pyrrolo[2,3-b]pyridin-4-yl)thiazol-2-yl]-2-oxa-6-azaspiro[3.3]heptane-6-carboxamide]	1	1	0.5	290	
Cc1cc(-c2sc(NC(=O)N3CC4(COC4)C3)nc2-c2cccc(C#N)c2)cc2cn(C)nc12 [Example 28, N-[4-(3-Cyanophenyl)-5-(2,7-dimethylindazol-5-yl)thiazol-2-yl]-2-oxa-6-azaspiro[3.3]heptane-6-carboxamide]	21	8.4	6.7	628	
Cc1cnc2ccc(-c3sc(NC(=O)N4CC5(COC5)C4)nc3-c3cccc(C#N)c3)cn12 [Example 22, N-[4-(3-Cyanophenyl)-5-(3-methylimidazo[1,2-a]pyridin-6-yl)thiazol-2-yl]-2-oxa-6-azaspiro[3.3]heptane-6-carboxamide]	0.4	0.15	1.4	2550	
N#Cc1cccc(-c2nc(NC(=O)N3CC4(COC4)C3)sc2-c2ccc3nccn3c2)c1 [Example 26, N-[4-(3-Cyanophenyl)-5-imidazo[1,2-a]pyridin-6-yl-thiazol-2-yl]-2-oxa-6-azaspiro[3.3]heptane-6-carboxamide]	0.3	0.33	0.5	904	
Cc1ncnc2ccc(-c3sc(NC(=O)N4CCC5(CC4)CNCCO5)nc3-c3cccc(C#N)c3)cc12 [Example 3.1, N-[4-(3-Cyanophenyl)-5-(4-methylquinazolin-6-yl)thiazol-2-yl]-1-oxa-4,9-diazaspiro[5.5]undecane-9-carboxamide]	48	0.15	1.3		10
Cc1cc(-c2sc(NC(=O)N3CC4(COC4)C3)nc2-c2cccc(C#N)c2)cnn1 [Example 31, N-[4-(3-Cyanophenyl)-5-(6-methylpyridazin-4-yl)thiazol-2-yl]-2-oxa-6-azaspiro[3.3]heptane-6-carboxamide]	57	4.31	38.7	1180	
Cn1ccc2c(-c3sc(NC(=O)N4CC5(COC5)C4)nc3-c3cccc(C#N)c3)ccnc21 [Example 21, N-[4-(3-Cyanophenyl)-5-(1-methylpyrrolo[2,3-b]pyridin-4-yl)thiazol-2-yl]-2-oxa-6-azaspiro[3.3]heptane-6-carboxamide]	4	8.33	2.6	421	
Cc1ncnc2ccc(-c3sc(NC(=O)N4CC[C@@](C)(C#N)C4)nc3-c3cccc(C#N)c3)cc12 [Example 7.1, (3R)-3-Cyano-N-[4-(3-cyanophenyl)-5-(4-methylquinazolin-6-yl)thiazol-2-yl]-3-methyl-pyrrolidine-1-carboxamide]	121	36.9	0.9	828	
Cc1cc(-c2sc(NC(=O)N3CCC(C)(C#N)CC3)nc2-c2cccc(C#N)c2)c2[nH]ncc2n1 [Example 19, 4-Cyano-N-[4-(3-cyanophenyl)-5-(5-methyl-1H-pyrazolo[4,3-b]pyridin-7-yl)thiazol-2-yl]-4-methyl-piperidine-1-carboxamide]	240	2	1.8		216
Cc1ncnc2ccc(-c3sc(NC(=O)N4CC5(COC5)C4)nc3-c3cccc(C#N)c3)cc12 [Example 7.29, N-[4-(3-Cyanophenyl)-5-(4-methylquinazolin-6-yl)thiazol-2-yl]-2-oxa-6-azaspiro[3.3]heptane-6-carboxamide]	3	0.09	0.5		5
Cc1ncnc2ccc(-c3sc(NC(=O)N4CCC5(CNCCO5)C4)nc3-c3cccc(C#N)c3)cc12 (centres unmarked) [Example 4, N-[4-(3-Cyanophenyl)-5-(4-methylquinazolin-6-yl)thiazol-2-yl]-6-oxa-2,9-diazaspiro[4.5]decane-2-carboxamide]	27	0.19	1.9		10
Cc1ncnc2ccc(-c3sc(NC(=O)N4CCO[C@H](C(C)(C)O)C4)nc3-c3cccc(C#N)c3)cc12 (single isomer, unassigned) [Example 7.7a, (2S)—N-[4-(3-Cyanophenyl)-5-(4-methylquinazolin-6-yl)thiazol-2-yl]-2-(1-hydroxy-1-methyl-ethyl)morpholine-4-carboxamide or (2R)—N-[4-(3-cyanophenyl)-5-(4-methylquinazolin-6-yl)thiazol-2-yl]-2-(1-hydroxy-1-methyl-ethyl)morpholine-4-carboxamide]	4	0.1	1.1		
Cc1ncnc2ccc(-c3sc(NC(=O)N4CCN(C(C)(C)C#N)CC4)nc3-c3cccc(C#N)c3)cc12 [Example 7.2, 4-(1-Cyano-1-methyl-ethyl)-N-[4-(3-cyanophenyl)-5-(4-methylquinazolin-6-yl)thiazol-2-yl]piperazine-1-carboxamide]	9	0.2	1.5		
Cc1ncnc2ccc(-c3sc(NC(=O)N4CCCNCC4)nc3-c3cccc(C#N)c3)cc12 [Example 7.18, N-[4-(3-Cyanophenyl)-5-(4-methylquinazolin-6-yl)thiazol-2-yl]-1,4-diazepane-1-carboxamide]	11	0.38	2.2		
Cc1nc(C)c(-c2sc(NC(=O)N3CCC(C)(C#N)CC3)nc2-c2cccc(C#N)c2)o1 [Example 14, 4-Cyano-N-[4-(3-cyanophenyl)-5-(2,4-dimethyloxazol-5-yl)thiazol-2-yl]-4-methyl-piperidine-1-carboxamide]	12	0.42	2.8		
Cc1ncnc2ccc(-c3sc(NC(=O)N4CCC(OCCN5CCCC5)C4)nc3-c3cccc(C#N)c3)cc12 (centres unmarked) [Example 7.9, N-[4-(3-Cyanophenyl)-5-(4-methylquinazolin-6-yl)thiazol-2-yl]-3-(2-pyrrolidin-1-ylethoxy)pyrrolidine-1-carboxamide]	21	0.1	1.9		
Cc1ncnc2ccc(-c3sc(NC(=O)N4CCN(CCO)CC4)nc3-c3cccc(C#N)c3)cc12 [Example 7.27, N-[4-(3-Cyanophenyl)-5-(4-methylquinazolin-6-yl)thiazol-2-yl]-4-(2-hydroxyethyl)piperazine-1-carboxamide]	27	0.48	3.1		

— patent US20250243194A1, “ANTAGONIST OF ADENOSINE RECEPTORS” (AdoRx Therapeutics Limited, priority 2022, published 2025)
